Results reported in ChEMBL document CHEMBL1146400, “10-Epi-olguine from Rabdosia ternifolia” (1997).
In brackets after ≈: the same amount, converted by molar mass.

Columns and labels:
Format in all cases: functional
Conditions in all cases: read-out: ED50 (the source's name)
Lu1 = assay: Cytotoxicity against human Lu1 cells
LNCaP = assay: Cytotoxicity against human LNCAP cells
[1] = Cytotoxicity against human BC1 cells
KB = assay: Cytotoxicity against human KB cells
Col2 = assay: Cytotoxicity against human Col2 cells
[2] = Cytotoxicity against human KBVIN cells in presence of vinblastine
[3] = Cytotoxicity against human KBVIN cells in absence of vinblastine

CC(=O)O[C@@H](C)[C@@H](/C=C/[C@@H]1O[C@@H]1[C@@H]1OC(=O)C=C[C@@H]1OC(C)=O)OC(C)=O
EC50 (Lu1): 4.8 µg/mL (≈ 12.6 µM) | EC50 (LNCaP): 1.2 µg/mL (≈ 3.14 µM) | EC50 [1]: 1.8 µg/mL (≈ 4.71 µM) | EC50 (KB): 1.8 µg/mL (≈ 4.71 µM) | EC50 (Col2): 2.1 µg/mL (≈ 5.49 µM) | EC50 [2]: 2.2 µg/mL | EC50 [3]: 2.1 µg/mL (≈ 5.49 µM)
